PMC2970562, “High-Affinity Inhibitors of Human NAD^+-Dependent 15-Hydroxyprostaglandin Dehydrogenase: Mechanisms of Inhibition and Structure-Activity Relationships” (PLoS ONE, 2010)
Like-named read-outs stand apart in the source and are kept apart here.

Columns and labels:
human 15-PGDH = biological target: T1, human 15-PGDH (Homo sapiens, UniProt P15428); test: qHTS and 24-point re-test: fluorescence assay of NAD+ reduction to NADH on PGE2 oxidation (PubChem AID 894); format: biochemical; conditions: read-out: qHTS IC50
T1 construct: comprising residues 3–256 of the human HPGD gene (GenBank identifier: 1203982); His6 (GHHHHHH, behind the TEV site) (C, cleaved yes); made in house; host or cells: E. coli BL21(DE3)-R3
T1 sequence (P15428 3-256): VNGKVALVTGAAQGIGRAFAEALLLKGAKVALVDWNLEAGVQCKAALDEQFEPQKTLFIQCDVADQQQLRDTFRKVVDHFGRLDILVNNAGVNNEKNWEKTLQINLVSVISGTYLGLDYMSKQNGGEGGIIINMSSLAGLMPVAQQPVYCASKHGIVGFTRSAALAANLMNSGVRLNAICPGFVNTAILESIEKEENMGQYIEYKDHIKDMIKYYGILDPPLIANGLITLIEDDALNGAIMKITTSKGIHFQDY
Procedure, shortened: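 NADH fluorescence (ex 340/em 450 nm) followed kinetically over a 2-min initial rate. Data normalized to no-enzyme and no-compound controls; four-parameter Hill fit.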

ALDH1A1 = biological target: T2, ALDH1A1 (Homo sapiens, UniProt P00352); test: Selectivity screen, aldehyde dehydrogenase 1 (PubChem Assay ID 1030); format: biochemical
T2 sequence (P00352 1-501): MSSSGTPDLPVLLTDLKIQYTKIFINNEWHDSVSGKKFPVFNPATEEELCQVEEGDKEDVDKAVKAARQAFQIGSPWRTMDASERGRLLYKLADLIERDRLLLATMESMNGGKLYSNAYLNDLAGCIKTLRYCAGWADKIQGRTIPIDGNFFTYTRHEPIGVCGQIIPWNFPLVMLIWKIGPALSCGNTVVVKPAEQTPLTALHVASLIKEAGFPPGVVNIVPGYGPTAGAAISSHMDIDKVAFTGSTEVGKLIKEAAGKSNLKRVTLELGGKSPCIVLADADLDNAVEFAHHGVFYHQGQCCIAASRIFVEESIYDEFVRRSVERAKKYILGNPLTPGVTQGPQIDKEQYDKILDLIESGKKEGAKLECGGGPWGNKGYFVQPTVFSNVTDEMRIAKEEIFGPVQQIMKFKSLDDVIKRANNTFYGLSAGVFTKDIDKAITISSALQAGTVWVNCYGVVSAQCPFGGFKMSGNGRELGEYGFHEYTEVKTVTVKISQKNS
Method: The list also includes two SDR enzymes, hydroxyacyl dehydrogenase (HADH2, also known as type-10 hydroxysteroid dehydrogenase, HSD17β10; PubChem Assay ID 886) and type-4 hydroxysteroid dehydrogenase (HSD17β4; PubChem Assay ID 893), and a medium-chain dehydrogenase/reductase (MDR), aldehyde dehydrogenase 1 (ALDH1A1; PubChem Assay ID 1030), each of which was tested using a similar experimental protocol to that used for 15-PGDH.

[1] = top concentration 57.5 µM, PubChem Assay ID 1030, read-out: IC50/nM ALDH1A1

| IC50 (human 15-PGDH) [µM] | Emax (ALDH1A1; ALDH1A1, footnote of Table 3, read-out: Maximal response, inhibition) [%] | IC50 (ALDH1A1; ALDH1A1, shallow curve, read-out: approximate IC50) [nM] | IC50 (ALDH1A1; [1]) [nM] | response against ALDH1A1 (ALDH1A1; in words) | SMILES |
| --- | --- | --- | --- | --- | --- |
| 0.056 | 70 | ~36000 | 36000 | – | Cc1cccc(-n2cnc3cc(C(=O)N4CCCCC4)ccc32)c1 [Compound 13, [1-(3-methylphenyl)-1H-benzimidazol-5-yl)(piperidin-1-yl)methanone] |
| 0.089 | – | – | > 57500 | flat response | Cc1cc(-c2nnc3n2CCCCC3)c(C)n1-c1ccccc1 [Compound 72] |
